{"source": "paper PMC7044277", "about": "(Nature Communications, 2020)", "format_in_all_cases": "cell-based", "key": {"[1]": {"molecular_target": "T1, 320 non-olfactory GPCRs (Homo sapiens, UniProt O00398)", "T1 construct": "expressed in transfected cells; host or cells: HTLA cells", "T1 sequence (O00398 whole entry)": "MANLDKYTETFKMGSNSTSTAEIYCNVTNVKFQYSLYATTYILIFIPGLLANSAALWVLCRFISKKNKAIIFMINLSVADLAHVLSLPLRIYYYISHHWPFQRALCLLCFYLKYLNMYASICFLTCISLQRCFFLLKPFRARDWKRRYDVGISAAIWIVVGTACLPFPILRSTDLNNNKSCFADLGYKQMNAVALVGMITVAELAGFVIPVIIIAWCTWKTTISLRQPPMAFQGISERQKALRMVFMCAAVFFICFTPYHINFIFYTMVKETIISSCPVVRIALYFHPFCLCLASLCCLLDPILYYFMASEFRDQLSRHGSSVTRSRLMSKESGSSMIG", "settings": "receptor P2RY10; replicate values, Fig_4g"}, "[2]": {"molecular_target": "T2, 320 non-olfactory GPCRs (Homo sapiens, UniProt P51679)", "T2 construct": "expressed in transfected cells; host or cells: HTLA cells", "T2 sequence (P51679 whole entry)": "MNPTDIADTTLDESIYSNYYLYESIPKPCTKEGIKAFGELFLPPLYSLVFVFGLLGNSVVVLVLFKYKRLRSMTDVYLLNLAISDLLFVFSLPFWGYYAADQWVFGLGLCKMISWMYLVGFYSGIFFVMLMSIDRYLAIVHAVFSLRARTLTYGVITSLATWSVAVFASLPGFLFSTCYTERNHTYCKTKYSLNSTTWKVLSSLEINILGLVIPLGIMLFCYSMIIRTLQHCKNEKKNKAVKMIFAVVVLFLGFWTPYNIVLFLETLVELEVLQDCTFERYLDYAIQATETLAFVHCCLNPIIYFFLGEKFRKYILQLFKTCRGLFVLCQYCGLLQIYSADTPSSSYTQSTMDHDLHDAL"}, "[3]": {"molecular_target": "T3, 320 non-olfactory GPCRs (Homo sapiens, UniProt P51685)", "T3 construct": "expressed in transfected cells; host or cells: HTLA cells", "T3 sequence (P51685 whole entry)": "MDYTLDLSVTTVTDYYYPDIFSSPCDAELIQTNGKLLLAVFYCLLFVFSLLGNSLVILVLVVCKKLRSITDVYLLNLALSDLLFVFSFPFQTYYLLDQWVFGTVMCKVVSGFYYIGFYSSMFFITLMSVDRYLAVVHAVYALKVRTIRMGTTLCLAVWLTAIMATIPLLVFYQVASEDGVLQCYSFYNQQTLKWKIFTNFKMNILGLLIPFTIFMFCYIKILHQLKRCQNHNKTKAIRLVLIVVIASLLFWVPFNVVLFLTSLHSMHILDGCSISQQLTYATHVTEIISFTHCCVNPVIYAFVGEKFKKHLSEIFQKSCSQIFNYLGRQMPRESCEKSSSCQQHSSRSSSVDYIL"}, "[4]": {"molecular_target": "T4, 320 non-olfactory GPCRs (Homo sapiens, UniProt Q8TDV5)", "T4 construct": "expressed in transfected cells; host or cells: HTLA cells", "T4 sequence (Q8TDV5 whole entry)": "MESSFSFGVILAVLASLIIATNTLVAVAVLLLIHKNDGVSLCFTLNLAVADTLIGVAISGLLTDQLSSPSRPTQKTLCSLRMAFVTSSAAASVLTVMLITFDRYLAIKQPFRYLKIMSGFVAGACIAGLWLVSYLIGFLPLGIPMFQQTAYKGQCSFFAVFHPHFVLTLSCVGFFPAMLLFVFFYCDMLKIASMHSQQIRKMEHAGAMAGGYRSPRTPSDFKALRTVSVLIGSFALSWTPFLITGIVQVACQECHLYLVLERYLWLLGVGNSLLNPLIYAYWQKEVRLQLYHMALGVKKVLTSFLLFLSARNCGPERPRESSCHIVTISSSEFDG"}}, "note": "Where “and” joins values, the source holds several entries; their conditions need not be identical. Equal values may be shown once.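 Wherever Fold of Basal is given: compound tested at 1 µM final concentration.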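 Wherever GPCRome agonism screen response is given: fold over basal response of each receptor without drug.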", "data": [{"smiles": "CCOc1cccc2cc(C(C)NCC3(O)CCCCC3)oc12", "note": "(stereo not shown) [O4LE6]", "values": [{"measurement": "GPCRome agonism screen response", "setting": "[1]", "value": "0.6744 and 0.6284 and 0.7052 and 0.972"}, {"measurement": "Fold of Basal", "setting": "[2]", "value": "1.013 and 0.8978 and 0.7406 and 0.6452"}, {"measurement": "Fold of Basal", "setting": "[3]", "value": "1.057 (2×) and 0.6946 and 0.6945"}, {"measurement": "Fold of Basal", "setting": "[4]", "value": "0.5971 and 0.6704 and 0.4797 and 0.8296"}]}]}
